# Assay results: ChEMBL document CHEMBL1138586 (Bioorg Med Chem Lett, 2009)
# Tests used:
# [1] = molecular target: Coagulation factor X (Homo sapiens, UniProt P00742); test: Inhibition of Factor 10a
# [2] = Metabolic stability in human liver S9 fraction at 1 uM by HPLC; assay type: ADME, subcellular
# [3] = Metabolic stability in rat liver S9 fraction at 1 uM by HPLC; assay type: ADME, subcellular
# [4] = Clearance in rat; assay type: ADME, organism-based; settings: in vivo
# [5] = Half life in rat; assay type: ADME, organism-based; settings: in vivo
# [6] = Oral bioavailability in rat; assay type: ADME, organism-based; settings: in vivo
# [7] = molecular target: Prothrombin (Homo sapiens, UniProt P00734); test: Inhibition of thrombin
# [8] = Inhibition of trypsin
# [9] = molecular target: Tissue-type plasminogen activator (Homo sapiens, UniProt P00750); test: Inhibition of tissue plasminogen activator
# [10] = molecular target: Vitamin K-dependent protein C (Homo sapiens, UniProt P04070); test: Inhibition of activated anticoagulant protein C
# [11] = molecular target: Plasminogen (Homo sapiens, UniProt P00747); test: Inhibition of plasmin
# [12] = Inhibition of kallikrein
# [13] = Oral bioavailability in rat at 6 mg/kg; assay type: ADME, organism-based; settings: in vivo
# [14] = Half life in rat at 0.2 mg/kg, iv and 6 mg/kg, po; assay type: ADME, organism-based; settings: in vivo
# [15] = Clearance in rat at 0.2 mg/kg, iv and 6 mg/kg, po; assay type: ADME, organism-based; settings: in vivo
# [16] = Volume of distribution in rat at 0.2 mg/kg, iv and 6 mg/kg, po; assay type: ADME, organism-based; settings: in vivo
# [17] = AUC in rat at 6 mg/kg, po; assay type: ADME, organism-based; parameters: dose 6 mg/kg, route oral; settings: plasma
# [18] = Oral bioavailability in Beagle dog at 1 mg/kg; assay type: ADME, organism-based, Canis lupus familiaris; settings: in vivo
# [19] = Half life in Beagle dog at 0.1 mg/kg, iv and 1 mg/kg, po; assay type: ADME, organism-based, Canis lupus familiaris; settings: in vivo
# [20] = Clearance in Beagle dog at 0.1 mg/kg, iv and 1 mg/kg, po; assay type: ADME, organism-based, Canis lupus familiaris; settings: in vivo
# [21] = Volume of distribution in Beagle dog at 0.1 mg/kg, iv and 1 mg/kg, po; assay type: ADME, organism-based, Canis lupus familiaris; settings: in vivo
# [22] = AUC in Beagle dog at 1 mg/kg, po; assay type: ADME, organism-based, Canis lupus familiaris; parameters: dose 1 mg/kg, route oral; settings: plasma
# [23] = Oral bioavailability in cynomolgus monkey at 1 mg/kg; assay type: ADME, organism-based, Macaca fascicularis; settings: in vivo
# [24] = Half life in cynomolgus monkey at 0.1 mg/kg, iv and 1 mg/kg, po; assay type: ADME, organism-based, Macaca fascicularis; settings: in vivo
# [25] = Clearance in cynomolgus monkey at 0.1 mg/kg, iv and 1 mg/kg, po; assay type: ADME, organism-based, Macaca fascicularis; settings: in vivo
# [26] = Volume of distribution in cynomolgus monkey at 0.1 mg/kg, iv and 1 mg/kg, po; assay type: ADME, organism-based, Macaca fascicularis; settings: in vivo
# [27] = AUC in cynomolgus monkey at 1 mg/kg, po; assay type: ADME, organism-based, Macaca fascicularis; parameters: dose 1 mg/kg, route oral; settings: plasma
# [28] = molecular target: T1, Voltage-gated inwardly rectifying potassium channel KCNH2 (Homo sapiens, UniProt Q12809)
# [29] = Fraction unbound in human plasma at 10 uM after 30 mins; assay type: ADME, cell-free
# [30] = molecular target: T1, Voltage-gated inwardly rectifying potassium channel KCNH2; test: Inhibition of human ERG expressed in HEK293 cells by patch-clamp method; assay type: cell-based
# Sequence of Coagulation factor X (P00742 41-179 limits assumed): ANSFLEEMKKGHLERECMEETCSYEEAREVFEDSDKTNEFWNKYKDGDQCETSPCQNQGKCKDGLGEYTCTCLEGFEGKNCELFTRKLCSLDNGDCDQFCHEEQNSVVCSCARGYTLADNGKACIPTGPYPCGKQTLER
# Sequence of Coagulation factor X (P00742 235-488 limits assumed): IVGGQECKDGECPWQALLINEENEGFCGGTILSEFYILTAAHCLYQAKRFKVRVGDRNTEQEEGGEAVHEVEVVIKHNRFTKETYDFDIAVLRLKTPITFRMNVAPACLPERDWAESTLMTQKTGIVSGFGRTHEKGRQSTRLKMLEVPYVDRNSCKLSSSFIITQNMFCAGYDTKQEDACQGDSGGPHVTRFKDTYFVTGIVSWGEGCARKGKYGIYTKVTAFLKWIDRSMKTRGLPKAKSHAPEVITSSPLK
# T1 sequence (Q12809 whole entry): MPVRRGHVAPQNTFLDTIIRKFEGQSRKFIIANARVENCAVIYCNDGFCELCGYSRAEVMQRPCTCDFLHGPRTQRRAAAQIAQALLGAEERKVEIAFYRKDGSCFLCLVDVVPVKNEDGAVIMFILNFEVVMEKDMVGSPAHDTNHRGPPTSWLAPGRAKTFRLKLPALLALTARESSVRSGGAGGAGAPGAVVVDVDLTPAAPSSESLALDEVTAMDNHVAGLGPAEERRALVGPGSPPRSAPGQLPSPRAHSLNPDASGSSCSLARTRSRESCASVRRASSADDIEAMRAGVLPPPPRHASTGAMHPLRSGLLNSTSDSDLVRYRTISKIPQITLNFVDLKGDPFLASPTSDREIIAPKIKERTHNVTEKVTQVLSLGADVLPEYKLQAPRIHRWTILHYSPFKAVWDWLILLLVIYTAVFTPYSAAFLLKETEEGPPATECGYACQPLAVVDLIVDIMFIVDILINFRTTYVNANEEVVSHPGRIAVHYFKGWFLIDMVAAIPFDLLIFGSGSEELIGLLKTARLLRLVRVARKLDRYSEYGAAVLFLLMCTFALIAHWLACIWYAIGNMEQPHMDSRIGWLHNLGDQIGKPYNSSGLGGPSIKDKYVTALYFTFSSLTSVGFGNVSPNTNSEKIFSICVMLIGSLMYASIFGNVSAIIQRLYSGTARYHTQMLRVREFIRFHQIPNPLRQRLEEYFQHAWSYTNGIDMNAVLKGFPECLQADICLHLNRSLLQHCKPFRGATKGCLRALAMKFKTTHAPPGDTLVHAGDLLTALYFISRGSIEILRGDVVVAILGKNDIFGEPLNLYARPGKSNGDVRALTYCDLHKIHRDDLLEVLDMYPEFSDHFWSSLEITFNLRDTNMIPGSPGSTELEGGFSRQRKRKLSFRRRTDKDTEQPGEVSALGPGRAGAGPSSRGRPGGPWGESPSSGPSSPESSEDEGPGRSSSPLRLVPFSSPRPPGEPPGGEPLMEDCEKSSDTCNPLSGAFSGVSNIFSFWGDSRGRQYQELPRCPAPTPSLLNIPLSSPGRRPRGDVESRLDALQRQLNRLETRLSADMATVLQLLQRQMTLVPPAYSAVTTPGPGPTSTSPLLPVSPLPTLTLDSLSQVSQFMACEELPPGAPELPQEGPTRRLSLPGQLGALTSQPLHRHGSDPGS
# Sequence of Vitamin K-dependent protein C (P04070 43-197 limits assumed): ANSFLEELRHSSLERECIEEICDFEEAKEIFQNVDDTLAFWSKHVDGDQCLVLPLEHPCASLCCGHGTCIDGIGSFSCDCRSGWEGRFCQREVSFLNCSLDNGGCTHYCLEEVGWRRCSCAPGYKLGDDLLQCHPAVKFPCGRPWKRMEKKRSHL
# Sequence of Vitamin K-dependent protein C (P04070 212-461 limits assumed): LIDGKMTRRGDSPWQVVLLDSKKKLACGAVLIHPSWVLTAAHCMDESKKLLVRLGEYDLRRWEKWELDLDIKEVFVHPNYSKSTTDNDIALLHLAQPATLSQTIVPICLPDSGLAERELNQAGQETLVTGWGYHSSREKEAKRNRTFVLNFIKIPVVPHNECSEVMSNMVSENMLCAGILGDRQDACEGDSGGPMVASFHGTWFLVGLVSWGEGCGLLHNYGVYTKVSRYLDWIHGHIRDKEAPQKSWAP
# Sequence of Plasminogen (P00747 97-580 limits assumed): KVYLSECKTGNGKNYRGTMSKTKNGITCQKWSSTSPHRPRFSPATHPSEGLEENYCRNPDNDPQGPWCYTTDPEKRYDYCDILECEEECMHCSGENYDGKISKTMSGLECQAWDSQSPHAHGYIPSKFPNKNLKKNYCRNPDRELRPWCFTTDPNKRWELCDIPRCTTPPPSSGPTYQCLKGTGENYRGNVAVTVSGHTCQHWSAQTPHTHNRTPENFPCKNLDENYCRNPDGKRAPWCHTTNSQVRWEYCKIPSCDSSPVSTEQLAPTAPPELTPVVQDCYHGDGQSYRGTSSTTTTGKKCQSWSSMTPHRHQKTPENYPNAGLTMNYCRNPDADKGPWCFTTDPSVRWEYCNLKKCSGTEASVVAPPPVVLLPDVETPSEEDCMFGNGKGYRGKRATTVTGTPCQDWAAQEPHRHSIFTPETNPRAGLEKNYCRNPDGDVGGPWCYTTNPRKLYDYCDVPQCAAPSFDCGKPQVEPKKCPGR
# Sequence of Plasminogen (P00747 581-810 limits assumed): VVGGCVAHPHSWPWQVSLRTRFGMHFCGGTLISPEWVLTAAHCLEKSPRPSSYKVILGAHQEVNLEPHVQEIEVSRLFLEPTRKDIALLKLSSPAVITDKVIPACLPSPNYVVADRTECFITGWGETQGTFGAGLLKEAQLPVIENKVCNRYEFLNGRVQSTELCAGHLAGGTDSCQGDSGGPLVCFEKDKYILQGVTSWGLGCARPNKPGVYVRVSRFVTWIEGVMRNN
# Sequence of Tissue-type plasminogen activator (P00750 whole entry): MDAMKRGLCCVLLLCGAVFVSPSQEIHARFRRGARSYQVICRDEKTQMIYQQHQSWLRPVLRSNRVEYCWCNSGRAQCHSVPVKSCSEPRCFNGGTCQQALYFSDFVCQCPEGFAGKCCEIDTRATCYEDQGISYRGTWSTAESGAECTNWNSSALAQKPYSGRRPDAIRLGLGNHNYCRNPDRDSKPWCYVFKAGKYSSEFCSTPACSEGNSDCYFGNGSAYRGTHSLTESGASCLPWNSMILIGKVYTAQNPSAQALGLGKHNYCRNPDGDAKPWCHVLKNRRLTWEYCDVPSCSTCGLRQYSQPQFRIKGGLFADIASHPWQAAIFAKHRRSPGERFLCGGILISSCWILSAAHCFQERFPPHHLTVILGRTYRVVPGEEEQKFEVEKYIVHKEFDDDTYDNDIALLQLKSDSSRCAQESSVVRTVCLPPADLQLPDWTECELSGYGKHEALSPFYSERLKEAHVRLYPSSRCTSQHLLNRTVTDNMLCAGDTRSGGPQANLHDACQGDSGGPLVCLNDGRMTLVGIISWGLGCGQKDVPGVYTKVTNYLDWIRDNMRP
smiles,measurement,setting,value
C#Cc1ccc(NC(=O)c2cc(Cl)ccc2NC(=O)c2ccc(C(=N)N(C)C)cc2)nc1,IC50,[1],0.8 nM
same,half-life at 1 µM,[2],> 2 h
same,half-life at 1 µM,[3],> 2 h
same,clearance,[4],> 100 mL/min/kg
same,half-life,[5],6.3 h
Cc1ccc(NC(=O)c2ccc(C(=N)N(C)C)cc2)c(C(=O)Nc2ccc(Cl)cn2)c1,IC50,[1],0.7 nM
COc1ccc(NC(=O)c2ccc(C(=N)N(C)C)cc2N2CCCCC2)c(C(=O)Nc2ccc(Cl)cn2)c1,IC50,[1],2 nM
CN(C)C(=N)c1ccc(C(=O)Nc2ccc(Cl)cc2C(=O)Nc2ccc(Cl)cn2)c(N2CCC2)c1,IC50,[1],0.4 nM
CN(C)C(=N)c1ccc(C(=O)Nc2ccsc2C(=O)Nc2ccc(Cl)cn2)cc1,IC50,[1],2 nM
COCCOc1cc(C(=N)N(C)C)ccc1C(=O)Nc1ccc(Cl)cc1C(=O)Nc1ccc(Cl)cn1,IC50,[1],1.2 nM
CN(C)C(=N)c1ccc(C(=O)Nc2ccc(Cl)cc2C(=O)Nc2ccc(Cl)cn2)cc1F,IC50,[1],1.1 nM
CN(C)C(=N)c1ccc(C(=O)Nc2c(C(=O)Nc3ccc(Cl)cn3)cc(Cl)cc2N2CCOCC2)cc1,IC50,[1],1.3 nM
CN1CCN=C1c1ccc(C(=O)Nc2ccc(Cl)cc2C(=O)Nc2ccc(Cl)cn2)cc1,IC50,[1],1.5 nM
CN(C)C(=N)c1ccc(C(=O)Nc2ccc(C#N)cc2C(=O)Nc2ccc(Cl)cn2)cc1,IC50,[1],1.2 nM
CC(C)Oc1cc(Cl)cc(C(=O)Nc2ccc(Cl)cn2)c1NC(=O)c1ccc(C(=N)N(C)C)cc1,IC50,[1],0.5 nM
Cc1ccc(NC(=O)c2cc(Cl)ccc2NC(=O)c2ccc(C(=N)N(C)C)cc2)nc1,IC50,[1],1.1 nM
CN(C)C(=N)c1ccc(C(=O)Nc2ccc(Cl)cc2C(=O)Nc2ccc(Cl)s2)cc1,IC50,[1],6 nM
COCCN(C)c1cc(C(=N)N(C)C)ccc1C(=O)Nc1ccc(Cl)cc1C(=O)Nc1ccc(Cl)cn1,IC50,[1],0.5 nM
CCSc1ccc(NC(=O)c2ccc(C(=N)N(C)C)cc2)c(C(=O)Nc2ccc(Cl)cn2)c1,IC50,[1],1.3 nM
CN(C)C(=N)c1ccc(C(=O)Nc2cc(Cl)ccc2C(=O)Nc2ccc(Cl)cn2)cc1,IC50,[1],2 nM
CN(C)C(=N)c1ccc(C(=O)Nc2c(Cl)cccc2C(=O)Nc2ccc(Cl)cn2)cc1,IC50,[1],21 nM
N=C(c1ccc(C(=O)Nc2ccc(Cl)cc2C(=O)Nc2ccc(Cl)cn2)cc1)N1CCC(C(=O)O)CC1,IC50,[1],2 nM
CN(C)C(=N)c1ccc(C(=O)Nc2ccc(Cl)cc2C(=O)Nc2ccc(Cl)cn2)c(N2CCCC2)c1,IC50,[1],2 nM
same,bioavailability,[6],6.9%
CN(C)C(=N)c1ccc(C(=O)Nc2ccc(Cl)cc2C(=O)Nc2ccc(Cl)cn2)c(N2CCCCCC2)c1,IC50,[1],1 nM
CN(C)C(=N)c1ccc(C(=O)Nc2ccc(Cl)cc2C(=O)Nc2ccc(Cl)cn2)c(N2CCCCC2)c1,IC50,[1],< 0.5 nM
same,bioavailability,[6],21.3%
COc1cc(C(=N)N(C)C)ccc1C(=O)Nc1ccc(Cl)cc1C(=O)Nc1ccc(Cl)cn1,IC50,[1],0.5 nM
CCOc1cc(Cl)cc(C(=O)Nc2ccc(Cl)cn2)c1NC(=O)c1ccc(C(=N)N(C)C)cc1,IC50,[1],0.6 nM
CCN1CCN=C1c1ccc(C(=O)Nc2ccc(Cl)cc2C(=O)Nc2ccc(Cl)cn2)cc1,IC50,[1],6 nM
CN(C)C(=N)c1ccc(C(=O)Nc2ccc(Cl)cc2C(=O)Nc2ccc(Cl)nc2)cc1,IC50,[1],3 nM
CN(C)C(=N)c1ccc(C(=O)Nc2ccc(Cl)cc2C(=O)Nc2ccc(F)cn2)cc1,IC50,[1],3 nM
CN(C)C(=N)c1ccc(C(=O)Nc2ccc(Cl)cc2C(=O)Nc2ccc(Cl)cn2)c(N2CCC(C(=O)O)CC2)c1,IC50,[1],0.7 nM
CN(C)C(=N)c1ccc(C(=O)Nc2ccc(Cl)cc2C(=O)Nc2ccc(Cl)cn2)c(N(C)C)c1,IC50,[1],3 nM
CN(C)C(=N)c1ccc(C(=O)Nc2ccc(F)cc2C(=O)Nc2ccc(Cl)cn2)cc1,IC50,[1],1.4 nM
COc1ccc(NC(=O)c2ccc(C(=N)N(C)C)cc2N2CCC(C(=O)O)CC2)c(C(=O)Nc2ccc(Cl)cn2)c1,IC50,[1],0.9 nM
same,bioavailability,[6],< 5%
CN(C)C(=N)c1ccc(C(=O)Nc2ccc(OC(F)(F)F)cc2C(=O)Nc2ccc(Cl)cn2)cc1,IC50,[1],17 nM
CN(C)C(=N)c1ccc(C(=O)Nc2ccc(Cl)cc2C(=O)Nc2ccc(Cl)cn2)cn1,IC50,[1],3 nM
N=C(c1ccc(C(=O)Nc2ccc(Cl)cc2C(=O)Nc2ccc(Cl)cn2)cc1)N1CCC1,IC50,[1],1.2 nM
C#Cc1ccc(NC(=O)c2cc(Cl)ccc2NC(=O)c2ccc(C(=N)N(C)C)cc2)cc1,IC50,[1],0.9 nM
CCN(C)C(=N)c1ccc(C(=O)Nc2ccc(Cl)cc2C(=O)Nc2ccc(Cl)cn2)cc1,IC50,[1],0.9 nM
COc1cc(C(=O)Nc2ccc(Cl)cc2C(=O)Nc2ccc(Cl)cn2)ccc1C(=N)N(C)C,IC50,[1],7 nM
CN(C)CCOc1cc(C(=N)N(C)C)ccc1C(=O)Nc1ccc(Cl)cc1C(=O)Nc1ccc(Cl)cn1,IC50,[1],< 0.5 nM
N=C(c1ccc(C(=O)Nc2ccc(Cl)cc2C(=O)Nc2ccc(Cl)cn2)cc1)N1CCCC1,IC50,[1],2 nM
CN(C)C(=N)c1ccc(C(=O)Nc2c(C(=O)Nc3ccc(Cl)cn3)cc(Cl)cc2N(C)C)cc1,IC50,[1],0.5 nM
N=C(c1ccc(C(=O)Nc2ccc(Cl)cc2C(=O)Nc2ccc(Cl)cn2)cc1)N1CCCCC1,IC50,[1],1.3 nM
CN(C)C(=N)c1ccc(C(=O)Nc2ccc(OCC(F)(F)F)cc2C(=O)Nc2ccc(Cl)cn2)cc1,IC50,[1],10 nM
CCc1ccc(NC(=O)c2ccc(C(=N)N(C)C)cc2)c(C(=O)Nc2ccc(Cl)cn2)c1,IC50,[1],1 nM
CN(C)C(=N)c1ccc(C(=O)Nc2ccc(OCC(=O)O)cc2C(=O)Nc2ccc(Cl)cn2)cc1,IC50,[1],6 nM
same,bioavailability,[6],< 5%
COc1cc(Cl)cc(C(=O)Nc2ccc(Cl)cn2)c1NC(=O)c1ccc(C(=N)N(C)C)cc1,IC50,[1],0.6 nM
same,bioavailability,[6],11.2%
CCN(C)c1cc(Cl)cc(C(=O)Nc2ccc(Cl)cn2)c1NC(=O)c1ccc(C(=N)N(C)C)cc1,IC50,[1],0.5 nM
CN(C)C(=N)c1ccc(C(=O)Nc2ccc(Cl)cc2C(=O)Nc2ccc(Cl)cc2)cc1,IC50,[1],0.7 nM
CN(C)C(=N)c1ccc(C(=O)Nc2ccc(Cl)cc2C(=O)Nc2ccc(Cl)cn2)c(F)c1,IC50,[1],< 0.5 nM
same,Ki,[1],0.06 nM
same,IC50,[7],> 10000 nM
same,IC50,[8],> 10000 nM
same,IC50,[9],> 10000 nM
same,IC50,[10],> 10000 nM
same,IC50,[11],> 10000 nM
same,IC50,[12],540 nM
same,bioavailability,[13],38%
same,half-life,[14],5.2 h
same,clearance,[15],15.3 mL/min/kg
same,Vd,[16],6.9 L/kg
same,AUC,[17],2420 ng·h/mL
same,bioavailability,[18],68.8%
same,half-life,[19],13.1 h
same,clearance,[20],30.5 mL/min/kg
same,Vd,[21],35.1 L/kg
same,AUC,[22],381 ng·h/mL
same,bioavailability,[23],86.1%
same,half-life,[24],22.8 h
same,clearance,[25],11.2 mL/min/kg
same,Vd,[26],20.5 L/kg
same,AUC,[27],1300 ng·h/mL
same,clearance,[4],15.3 mL/min/kg
same,bioavailability,[6],38%
same,Ki,[28],420 nM
CN(C)C(=N)c1ccc(C(=O)Nc2ccc(S(C)(=O)=O)cc2C(=O)Nc2ccc(Cl)cn2)cc1,IC50,[1],1.5 nM
CSc1ccc(NC(=O)c2ccc(C(=N)N(C)C)cc2)c(C(=O)Nc2ccc(Cl)cn2)c1,IC50,[1],< 0.5 nM
same,half-life at 1 µM,[2],> 2 h
same,half-life at 1 µM,[3],> 2 h
same,clearance,[4],77.1 mL/min/kg
same,half-life,[5],16.5 h
same,bioavailability,[6],26.7%
CN(C)C(=N)c1csc(C(=O)Nc2ccc(Cl)cc2C(=O)Nc2ccc(Cl)cn2)c1,IC50,[1],1 nM
C#Cc1ccc(NC(=O)c2ccc(C(=N)N(C)C)cc2)c(C(=O)Nc2ccc(Cl)cn2)c1,IC50,[1],< 0.5 nM
same,clearance,[4],74.8 mL/min/kg
same,half-life,[5],8.4 h
same,bioavailability,[6],27.9%
COCCN(C)c1cc(Cl)cc(C(=O)Nc2ccc(Cl)cn2)c1NC(=O)c1ccc(C(=N)N(C)C)cc1,IC50,[1],1.2 nM
same,bioavailability,[6],8.1%
CN(C)C(=N)c1ccc(C(=O)Nc2c(C(=O)Nc3ccc(Cl)cn3)cc(Cl)cc2N2CCCCC2)cc1,IC50,[1],0.9 nM
CN(C)C(=N)c1ccc(C(=O)Nc2ccc(Cl)cc2C(=O)Nc2ccc(Cl)cn2)cc1,"fraction unbound at 0.5 h, 10 µM",[29],0.881
same,IC50,[30],330 nM
same,IC50,[7],> 10000 nM
same,IC50,[8],> 10000 nM
same,IC50,[9],> 10000 nM
same,IC50,[10],> 10000 nM
same,IC50,[11],> 10000 nM
same,IC50,[12],510 nM
same,bioavailability,[13],26.1%
same,half-life,[14],12.8 h
same,clearance,[15],29.7 mL/min/kg
same,Vd,[16],26.1 L/kg
same,AUC,[17],885 ng·h/mL
same,bioavailability,[18],64.9%
same,half-life,[19],15.3 h
same,clearance,[20],34 mL/min/kg
same,Vd,[21],45.7 L/kg
same,AUC,[22],320 ng·h/mL
same,bioavailability,[23],73%
same,half-life,[24],19.4 h
same,clearance,[25],26.7 mL/min/kg
same,Vd,[26],36.5 L/kg
same,AUC,[27],512 ng·h/mL
same,Ki,[28],110 nM
CN(C)C(=N)c1ccc(C(=O)Nc2ccc(Cl)cc2C(=O)Nc2ccc(Cl)cn2)c(N2CCOCC2)c1,IC50,[1],0.7 nM
N=C(c1ccc(C(=O)Nc2ccc(Cl)cc2C(=O)Nc2ccc(Cl)cn2)cc1)N1CCOCC1,IC50,[1],2 nM
CN(C)C(=N)c1ccc(C(=O)Nc2ccc(C(F)(F)F)cc2C(=O)Nc2ccc(Cl)cn2)cc1,IC50,[1],1.3 nM
